In ChEMBL document CHEMBL4130496, “Anticancer properties of 4-thiazolidinone derivatives depend on peroxisome proliferator-activated receptor gamma (PPARγ)” (2017):
Activity calls are given as the source filed them. The calls are words filed in the database; no cut-off is given here.

Legend:
SCC-15 [1] = assay: Induction of apoptosis in human SCC15 cells transfected with PPARbeta siRNA assessed as increase in caspase 3 activity at 50 uM after 24 hrs relative to control; assay type: functional
SCC-15 [2] = assay: Induction of apoptosis in human SCC15 cells assessed as increase in caspase 3 activity at 50 uM after 24 hrs relative to control; assay type: functional
SCC-15 [3] = assay: Cytotoxicity against human SCC15 cells transfected with PPARgamma siRNA assessed as reduction in cell viability at 50 uM after 24 hrs by resazurin reduction assay; assay type: functional
SCC-15 [4] = assay: Cytotoxicity against human SCC15 cells assessed as reduction in cell viability at 50 uM after 24 hrs by resazurin reduction assay relative to control; assay type: functional
SCC-15 [5] = assay: Cytotoxicity against human SCC15 cells transfected with PPARbeta siRNA assessed as reduction in cell viability at 50 uM after 24 hrs by resazurin reduction assay; assay type: functional, cell-based
SCC-15 [6] = assay: Induction of apoptosis in human SCC15 cells transfected with PPARgamma siRNA assessed as increase in caspase 3 activity at 50 uM after 24 hrs relative to control; assay type: functional
SCC-15 [7] = assay: Cytotoxicity against human SCC15 cells transfected with PPARalpha siRNA assessed as reduction in cell viability at 50 uM after 24 hrs by resazurin reduction assay; assay type: functional, cell-based
SCC-15 [8] = assay: Downregulation of PPARgamma mRNA expression in human SCC15 cells at 50 uM after 4 hrs by RTqPCR analysis relative to control; assay type: functional
SCC-15 [9] = assay: Downregulation of PPARbeta mRNA expression in human SCC15 cells at 50 uM after 4 hrs by RTqPCR analysis relative to control; assay type: functional
SCC-15 [10] = assay: Induction of apoptosis in human SCC15 cells transfected with PPARalpha siRNA assessed as increase in caspase 3 activity at 50 uM after 24 hrs relative to control; assay type: functional, cell-based
SCC-15 [11] = assay: Cytotoxicity against human SCC15 cells transfected with PPARgamma siRNA assessed as increase in LDH release at 50 uM after 24 hrs by colorimetric assay relative to control; assay type: functional, cell-based
SCC-15 [12] = assay: Cytotoxicity against human SCC15 cells transfected with PPARalpha siRNA assessed as increase in LDH release at 50 uM after 24 hrs by colorimetric assay; assay type: functional, cell-based
SCC-15 [13] = assay: Downregulation of PPARbeta mRNA expression in human SCC15 cells at 10 uM after 4 hrs by RTqPCR analysis relative to control; assay type: functional
SCC-15 [14] = assay: Downregulation of PPARgamma mRNA expression in human SCC15 cells at 10 uM after 4 hrs by RTqPCR analysis relative to control; assay type: functional
SCC-15 [15] = assay: Cytotoxicity against human SCC15 cells transfected with PPARbeta siRNA assessed as increase in LDH release at 50 uM after 24 hrs by colorimetric assay relative to control; assay type: functional, cell-based
SCC-15 [16] = assay: Downregulation of PPARalpha mRNA expression in human SCC15 cells at 50 uM after 4 hrs by RTqPCR analysis relative to control; assay type: functional
SCC-15 [17] = assay: Downregulation of PPARalpha mRNA expression in human SCC15 cells at 10 uM after 4 hrs by RTqPCR analysis relative to control; assay type: functional
SCC-15 [18] = assay: Cytotoxicity against human SCC15 cells assessed as increase in LDH release at 50 uM after 24 hrs by colorimetric assay relative to […]; assay type: functional

Structure (SMILES) | Activity (SCC-15 [1]) [%] | Activity (SCC-15 [2]) | Activity (SCC-15 [3]) | Activity (SCC-15 [4]) | Activity (SCC-15 [5]) | Activity (SCC-15 [6]) | Activity (SCC-15 [7]) | Activity (SCC-15 [8]) [%] | Activity (SCC-15 [9]) [%] | Activity (SCC-15 [10]) | Activity (SCC-15 [11]) | Activity (SCC-15 [12]) | Activity (SCC-15 [13]) [%] | Activity (SCC-15 [14]) [%] | Activity (SCC-15 [15]) | Activity (SCC-15 [16]) [%] | Activity (SCC-15 [17]) [%] | Activity (SCC-15 [18]) [%]
CCc1ccc(CCOc2ccc(CC3SC(=O)NC3=O)cc2)nc1 (stereo not given) [PIOGLITAZONE] | >27.52 | inactive | 31.42% | inactive | Active | 43.03% | Active | 17.33 | – | – | – | – | – | – | – | – | – | –
CN(C)c1ccc(C2CC(c3ccccc3)=NN2C2=NC(=O)/C(=C3/C(=O)Nc4ccccc43)S2)cc1 (stereo not given) | – | 177.42% | inactive | 13.53% | – | inactive | – | 15.27 | 31.92 | Active | inactive | Active | 31.43 | 24.79 | inactive | 18.66 | 28.26 | 44.97
O=C1c2ccccc2C(=O)c2sc3nc(=O)sc-3cc21 | – | 43.55% | inactive | 18.32% | – | inactive | – | 14.34 | – | Active | – | – | 16.62 | 45.91 | – | 26.99 | 54.37 | –
O=C(Cn1c2c(sc1=O)[C@@H]1c3ccccc3OC[C@H]1CS2)Nc1ccc(Cl)c(Cl)c1 | – | – | inactive | 12.08% | – | – | – | – | – | – | inactive | Active | 31.98 | 22.96 | – | – | 20.63 | 22.95
CN(CCOc1ccc(CC2SC(=O)NC2=O)cc1)c1ccccn1 (stereo not given) [ROSIGLITAZONE] | – | – | – | inactive | Active | – | Active | – | – | – | – | – | – | 25.54 | – | – | – | –
